In one assay the target is T1, uterine OT receptors (Rattus norvegicus, UniProt P70536).
T1 construct: from tissue; host or cells: uterus of DES-treated rats, crude membranes
T1 sequence (P70536 1-388): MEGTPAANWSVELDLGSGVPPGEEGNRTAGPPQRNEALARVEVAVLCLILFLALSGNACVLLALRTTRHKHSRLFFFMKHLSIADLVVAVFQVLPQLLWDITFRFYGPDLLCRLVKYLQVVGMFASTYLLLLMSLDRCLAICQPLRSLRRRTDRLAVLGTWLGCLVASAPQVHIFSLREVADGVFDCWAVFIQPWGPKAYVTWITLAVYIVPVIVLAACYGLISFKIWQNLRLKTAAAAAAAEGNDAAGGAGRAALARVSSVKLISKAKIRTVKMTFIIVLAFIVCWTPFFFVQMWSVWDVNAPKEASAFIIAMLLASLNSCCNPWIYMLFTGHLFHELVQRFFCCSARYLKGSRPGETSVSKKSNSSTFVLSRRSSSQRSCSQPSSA
Briefly: [^3 H]OT binding to uterine OT receptors, crude membrane preparation of uteri from DES-treated rats. The note with it: for IC50: rat uterus membranes, 1 nM [^3 H]OT, read-out: Receptor Binding Results IC50 (nM) [^3 H]OT; for inhibition at 1 µM / inhibition at 0.1 µM: 1 h, read-out: [^3 H]OT: percent inhibition of radioligand at the given concentration; for inhibition at 1 µM: @ 1,000 (nM); for inhibition at 0.1 µM: @ 100 (nM). As for the experimental part:
Competition studies were conducted at equilibrium (60 minutes; 22° C.) using 1 nM [^3 H]OT in the following assay buffer: 50 mM Tris-HCl, 5 mM MgCl2, and 0.1% BSA, pH 7.4.

Another assay concerns the target T2, AVP-V1 sites (Rattus norvegicus, UniProt P30560).
T2 construct: crude membrane preparation of male rat liver (AVP-V1 sites); from tissue; host or cells: male rat liver, crude membranes
Briefly: [^3 H]AVP binding to crude membrane preparation of male rat liver (AVP-V1 sites). The procedure: (§1) Nonspecific binding (5-10% of the total binding) was determined using 10 μM unlabeled AVP, and the binding reaction was terminated by filtration as described above for the [^3 H]OT binding assay.

Another assay concerns the target T3, AVP-V2 sites (Rattus norvegicus, UniProt Q00788).
T3 construct: male rat liver (AVP-V1 sites) or kidney medulla (AVP-V2 sites); from tissue; host or cells: male rat kidney medulla, crude membranes
Briefly: [^3 H]AVP binding to crude membrane preparation of male rat kidney medulla (AVP-V2 sites). The procedure: as §1

Setting [1] is: Receptor Binding Results IC50 (nM) [^3 H]-AVP-V1.
The mark [2] stands for this setting: rat kidney medulla membranes, 2 nM [^3 H]AVP, read-out: Receptor Binding Results IC50 (nM) [^3 H]-AVP-V2.
Setting [3] is: read-out: Receptor Binding Results IC50 (nM) [^3 H]-AVP-V1.
Where [4] appears, read: read-out: Receptor Binding Results IC50 (nM) [^3 H]-AVP-V2.

Molecules are shown by their SMILES. Read-outs that look alike come from different tables or passages of the source. Numbered stars: 1 amine (or outer) side, 2 acyl side, 3 side chain; on linkers, the order of the positions; unused ones are H or OH. Square brackets hold non-standard residues; d marks the D form. Peptide text beside a SMILES is read from it. * marks the point of attachment. dNMeY = CN[C@H](Cc1ccc(O)cc1)C(=O)O; X3 = O=C([C@@H]1C=CCCN1[*:1])[*:2]; X1 = O=C([C@H]1C=CCCN1[*:1])[*:2]; dNMeF = CN[C@H](Cc1ccccc1)C(=O)O; hPhe = N[C@@H](CCc1ccccc1)C(=O)O; dOrn = NCCC[C@@H](N)C(=O)O; Pip = O=C(O)[C@@H]1CCCCN1; dPip = O=C(O)[C@H]1CCCCN1; ClZ = O=C(OCc1ccccc1Cl)*; Orn = NCCC[C@H](N)C(=O)O; Cbz = O=C(OCc1ccccc1)*; Bn = c1ccc(C*)cc1 A value given as a limit tells only on which side of the number the result lay.

T3 sequence (Q00788 whole entry): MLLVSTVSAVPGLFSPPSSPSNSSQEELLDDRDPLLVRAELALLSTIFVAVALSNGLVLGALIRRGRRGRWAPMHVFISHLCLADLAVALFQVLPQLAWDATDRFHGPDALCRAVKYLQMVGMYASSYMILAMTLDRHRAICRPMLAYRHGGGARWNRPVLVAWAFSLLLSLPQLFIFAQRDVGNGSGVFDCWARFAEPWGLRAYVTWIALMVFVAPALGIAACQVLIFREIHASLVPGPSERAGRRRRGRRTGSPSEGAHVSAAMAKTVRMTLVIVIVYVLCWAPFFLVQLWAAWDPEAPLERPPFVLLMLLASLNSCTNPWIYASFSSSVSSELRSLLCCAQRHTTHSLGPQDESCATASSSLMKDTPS
T2 sequence (P30560 whole entry): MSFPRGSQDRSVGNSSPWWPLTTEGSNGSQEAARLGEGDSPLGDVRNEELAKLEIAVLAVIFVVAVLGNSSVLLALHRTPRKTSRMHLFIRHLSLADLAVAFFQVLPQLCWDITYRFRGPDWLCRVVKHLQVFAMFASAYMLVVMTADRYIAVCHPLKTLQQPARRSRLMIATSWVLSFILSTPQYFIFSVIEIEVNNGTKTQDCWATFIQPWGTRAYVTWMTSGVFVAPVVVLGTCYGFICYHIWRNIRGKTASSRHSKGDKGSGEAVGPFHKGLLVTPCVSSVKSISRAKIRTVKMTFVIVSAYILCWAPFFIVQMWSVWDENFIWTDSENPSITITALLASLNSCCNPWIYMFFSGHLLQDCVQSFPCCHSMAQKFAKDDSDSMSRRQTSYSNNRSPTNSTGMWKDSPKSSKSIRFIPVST

In the case of `CC[C@H](C)[C@@H]1NC(=O)[C@@H](Cc2ccccc2)NC(=O)[C@@H]2CCCN2C(=O)[C@@H](Cc2ccccc2)N(C)C(=O)[C@H]2C=CCCN2C(=O)[C@H]2CCCCN2C1=O` [Example 22, Cyclo[D-Phenylalanyl-L-isoleucyl-D-pipecolyl-D-(3,4-Dehydro)-pipecolyl-D-(N^α methyl)phenylalanyl-L-Prolyl]] (cyclo(I[dPip][X1][dNMeF]P[dF])), the IC50 at uterine OT receptors was 2400 nM; at AVP-V1 sites (setting [1]), greater than 10000 nM; on AVP-V2 sites (setting [2]) it was greater than 10000 nM.
`CC[C@H](C)[C@@H]1NC(=O)[C@@H](Cc2ccccc2)NC(=O)[C@@H]2CCCN2C(=O)[C@@H](Cc2ccccc2)N(C)C(=O)[C@@H]2C=CCCN2C(=O)[C@H]2CCCCN2C1=O` [Example 23, Cyclo[D-phenylanyl-L-isoleucyl-D-pipecolyl-L-(3,4-dehydro)-pipecolyl-D-(N^α methyl)phenylalanyl-L-prolyl]] (cyclo(I[dPip][X3][dNMeF]P[dF])): the IC50 at uterine OT receptors was 625 nM; at AVP-V1 sites (setting [1]) it was greater than 10000 nM; at AVP-V2 sites (setting [2]), greater than 10000 nM.
Consider `CC[C@H](C)[C@@H]1NC(=O)[C@@H](Cc2ccccc2)NC(=O)[C@@H]2CCCN2C(=O)[C@@H](Cc2ccccc2)N(C)C(=O)[C@@H]2CCCCN2C(=O)[C@H]2C=CCCN2C1=O` [Example 24, Cyclo[D-phenylanyl-L-isoleucyl-D-(3,4-dehydro)-pipecolyl-L-pipecolyl-D-(N^α methyl)phenyalanyl-L-prolyl]] (cyclo(I[X1][Pip][dNMeF]P[dF])), for which the 50% inhibitory concentration (IC50) is 640 nM at uterine OT receptors, greater than 10000 nM on AVP-V1 sites (setting [1]) and 10000 nM on AVP-V2 sites (setting [2]).
With `CC[C@H](C)[C@@H]1NC(=O)[C@@H](Cc2ccccc2)NC(=O)[C@@H]2CCCN2C(=O)[C@@H](Cc2c[nH]c3ccccc23)NC(=O)[C@@H]2CCCCN2C(=O)[C@H]2CCCCN2C1=O` [Example 25, Cyclo[D-phenylalanyl-L-isoleucyl-D-pipecolyl-L-pipecolyl-D-trytophanyl-L-prolyl]] (cyclo(I[dPip][Pip][dW]P[dF])), the IC50 amounted to 120 nM at uterine OT receptors, 3000 nM at AVP-V1 sites (setting [3]) and 3900 nM on AVP-V2 sites (setting [4]).
Consider `CC[C@H](C)[C@@H]1NC(=O)[C@@H](Cc2ccccc2)NC(=O)[C@@H]2CCCN2C(=O)[C@@H](CCCCNC(=O)OCc2ccccc2Cl)NC(=O)[C@@H]2CCCCN2C(=O)[C@H]2CCCCN2C1=O` [Example 26, Cyclo[D-phenylalanyl-L-isoleucyl-D-pipecolyl-L-pipecolyl-D-(2-chlorocarbobenzyloxy)-lysyl-L-prolyl]] (cyclo(I[dPip][Pip][dK](ClZ)P[dF])), for which the inhibition at 1 µM on uterine OT receptors was 86%. Moreover, the IC50 on AVP-V1 sites (setting [1]) and on AVP-V2 sites (setting [2]) was 10000 nM throughout.
For `CC[C@H](C)[C@@H]1NC(=O)[C@@H](Cc2ccccc2)NC(=O)[C@@H]2CCCN2C(=O)[C@@H](CCCNC(=O)OCc2ccccc2)NC(=O)[C@@H]2CCCCN2C(=O)[C@H]2CCCCN2C1=O` [Example 27, Cyclo[D-phenylalanyl-L-isoleucyl-D-pipecolyl-L-pipecolyl-D-(carbobenzyloxy)-ornithyl-L-prolyl]] (cyclo(I[dPip][Pip][dOrn](Cbz)P[dF])), on uterine OT receptors, the inhibition at 1 µM worked out at 79%. Also, the half-inhibitory concentration (IC50) at AVP-V1 sites (setting [1]) and on AVP-V2 sites (setting [2]) was 10000 nM each time.
For `CC[C@H](C)[C@@H]1NC(=O)[C@@H](Cc2ccccc2)NC(=O)[C@@H]2CCCN2C(=O)[C@@H](Cc2ccc(OCc3ccccc3)cc2)N(C)C(=O)[C@@H]2CCCCN2C(=O)[C@H]2CCCCN2C1=O` [Example 28, Cyclo[D-phenylalanyl-L-isoleucyl-D-pipecolyl-L-pipecolyl-D-(N^α methyl-O-Benzyl)-tyrosyl-L-prolyl]] (cyclo(I[dPip][Pip][dNMeY](Bn)P[dF])), the inhibition at 0.1 µM on uterine OT receptors turned out to be 28%. The IC50 at AVP-V1 sites (setting [1]) is greater than 10000 nM; on AVP-V2 sites (setting [2]), 10000 nM.
In the same order, the values of `CC[C@H](C)[C@@H]1NC(=O)[C@@H](Cc2c[nH]c3ccccc23)NC(=O)[C@@H]2CCCN2C(=O)[C@@H](Cc2c[nH]c3ccccc23)NC(=O)[C@H](CCCCNC(=O)OCc2ccccc2)NC(=O)[C@H]2CCCCN2C1=O` [Example 29, Cyclo[D-tryptophanyl-L-isoleucyl-D-pipecolyl-L-(carbobenzloxy)lysyl-D-tryptophanyl-L-prolyl]] (cyclo(I[dPip]K(Cbz)[dW]P[dW])) are 32%, greater than 10000 nM and greater than 10000 nM.
Consider `CC[C@H](C)[C@@H]1NC(=O)[C@@H](Cc2c[nH]c3ccccc23)NC(=O)[C@@H]2CCCN2C(=O)[C@@H](Cc2ccccc2)N(C)C(=O)[C@@H]2CCCCN2C(=O)[C@H]2CCCCN2C1=O` [Example 30, Cyclo[D-tryptophanyl-L-isoleucyl-D-pipecolyl-L-pipecolyl-D(N^α methyl)phenylalanyl-L-prolyl]] (cyclo(I[dPip][Pip][dNMeF]P[dW])), for which the IC50 on uterine OT receptors was 20 nM; at AVP-V1 sites (setting [3]) it was 12000 nM; at AVP-V2 sites (setting [4]), 747 nM.
Take `CN1C(=O)[C@@H]2CCCCN2C(=O)[C@H]2CCCCN2C(=O)[C@H](Cc2ccccc2)NC(=O)[C@@H](Cc2c[nH]c3ccccc23)NC(=O)[C@@H]2CCCN2C(=O)[C@H]1Cc1ccccc1` [Example 31, Cyclo[D-Tryptophanyl-L-phenylalanyl-D-pipecolyl-L-pipecolyl-D-(N^α -methyl)phenylalanyl-L-prolyl]] (cyclo(F[dPip][Pip][dNMeF]P[dW])): the IC50 at uterine OT receptors is 100 nM; on AVP-V1 sites (setting [1]), greater than 10000 nM; on AVP-V2 sites (Receptor Binding Results IC50 (nM) [^3 H]-AVP-V2), greater than 1000 nM.
In the case of `CN1C(=O)[C@@H]2CCCCN2C(=O)[C@H]2CCCCN2C(=O)[C@H](CCc2ccccc2)NC(=O)[C@@H](Cc2c[nH]c3ccccc23)NC(=O)[C@@H]2CCCN2C(=O)[C@H]1Cc1ccccc1` [Example 32, Cyclo[D-trytophanyl-L-homophenylalanyl-D-pipecolyl-L-pipecolyl-D-(N^α methyl)phenylalanyl-L-prolyl]] (cyclo(P[dW][hPhe][dPip][Pip][dNMeF])), the IC50 on uterine OT receptors is greater than 1000 nM; at AVP-V1 sites (setting [1]) it was greater than 10000 nM; at AVP-V2 sites (setting [2]), greater than 10000 nM.
For `CC[C@H](C)[C@@H]1NC(=O)[C@@H](Cc2c[nH]c3ccccc23)NC(=O)[C@@H]2CCCN2C(=O)[C@@H](Cc2ccc(OCc3ccccc3)cc2)N(C)C(=O)[C@@H]2CCCCN2C(=O)[C@H]2CCCCN2C1=O` [Example 33, Cyclo[D-tryptophanyl-L-isoleucyl-D-pipecolyl-L-pipecolyl-D-(N^α methyl-O-benzyl)tyrosyl-L-prolyl]] (cyclo(I[dPip][Pip][dNMeY](Bn)P[dW])), the IC50 at uterine OT receptors was 100 nM; on AVP-V1 sites (setting [1]), greater than 10000 nM; on AVP-V2 sites (setting [2]) it was greater than 10000 nM.
Take `CC[C@H](C)[C@@H]1NC(=O)[C@@H](Cc2c[nH]c3ccccc23)NC(=O)[C@@H]2CCCN2C(=O)[C@@H](Cc2ccccc2)N(C)C(=O)[C@H](CCCNC(=O)OCc2ccccc2)NC(=O)[C@H]2CCCCN2C1=O` [Example 34, Cyclo[D-trytophanyl-L-isoleucyl-D-pipecolyl-L-(carbobenzyloxy)ornithyl-D-(N^α methyl)phenylalanyl-L-prolyl]] (cyclo(I[dPip][Orn](Cbz)[dNMeF]P[dW])): the values for the IC50 at uterine OT receptors, on AVP-V1 sites (setting [1]) and at AVP-V2 sites (setting [2]) were 100 nM, greater than 1000 nM and 10000 nM, respectively.
For `CC[C@H](C)[C@@H]1NC(=O)[C@@H](Cc2c[nH]c3ccccc23)NC(=O)[C@@H]2CCCN2C(=O)[C@@H](Cc2ccccc2)N(C)C(=O)[C@H](CCCCNC(=O)OCc2ccccc2)NC(=O)[C@H]2CCCCN2C1=O` [Example 35, Cyclo[D-tryptophanyl-L-isoleucyl-D-pipecolyl-L-(carbobenzyloxy)lysyl-D-(N^α Methyl)phenylalanyl-L-prolyl]] (cyclo(I[dPip]K(Cbz)[dNMeF]P[dW])), the concentration for half-maximal inhibition (IC50) at uterine OT receptors was greater than 100 nM; at AVP-V1 sites (setting [1]), 10000 nM; at AVP-V2 sites (setting [2]), 10000 nM.
Take `CC[C@H](C)[C@@H]1NC(=O)[C@@H](Cc2c[nH]c3ccccc23)NC(=O)[C@@H]2CCCN2C(=O)[C@@H](Cc2c[nH]c3ccccc23)NC(=O)[C@H](CCCNC(=O)OCc2ccccc2)NC(=O)[C@H]2CCCCN2C1=O` [Example 36, Cyclo[D-tryptophanyl-L-isoleucyl-D-pipecolyl-L-(carbobenzyloxy)ornithinyl-D-trytophanyl-L-prolyl]] (cyclo(I[dPip][Orn](Cbz)[dW]P[dW])): the IC50 is greater than 100 nM on uterine OT receptors, greater than 10000 nM on AVP-V1 sites (setting [1]) and 10000 nM on AVP-V2 sites (setting [2]).

(Values after US5225528A, “Cyclic hexapeptide oxytocin antagonists” (priority 1990, dated 1993).)
